This is an account of results in patent US6767991B1, “Hepatitis C inhibitor peptides” (priority 1997, dated 2004).

Read-outs that look alike come from different tables or passages of the source. Where a SMILES comes first, the peptide text is derived from it. [ ]: non-standard residue; d: D form. The star is where a group is joined. Acca(2-Et,1R,2R) = CC[C@@H]1C[C@]1(N)C(=O)O; CH2(1-naphthyl) = c1ccc2c(C*)cccc2c1; Hyp = O=C(O)[C@@H]1C[C@@H](O)CN1; Chg = N[C@H](C(=O)O)C1CCCCC1; Nva = CCC[C@H](N)C(=O)O; X1 = c1ccc2cc(C*)ccc2c1; Ac3c = NC1(C(=O)O)CC1; Bn = c1ccc(C*)cc1 Where only a bound is given, the exact number is not on record here.

Assay [1] deals with T1, HCV NS3 protease type 1b/NS4A cofactor peptide (Hepatitis C virus genotype 1b, UniProt P26663).
T1 construct: recombinant HCV NS3 protease (amino acid 1027 to 1206) was cloned in the pET11d bacterial expression vector; made in house; host or cells: E. coli BL21(DE3)pLysS
T1 sequence (P26663 1027-1206, other chains not shown): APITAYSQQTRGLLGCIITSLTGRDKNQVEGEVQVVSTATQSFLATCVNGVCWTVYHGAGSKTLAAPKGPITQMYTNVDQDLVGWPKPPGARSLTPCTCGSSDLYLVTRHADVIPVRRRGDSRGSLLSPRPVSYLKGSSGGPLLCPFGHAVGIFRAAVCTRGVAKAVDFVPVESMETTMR
Kind of assay: Recombinant HCV NS3 protease/NS4A cofactor peptide radiometric assay. It counts as biochemical, HCV genotype 1b.

A further assay has as its target T2, human leukocyte elastase (Homo sapiens, UniProt P08246).
T2 sequence (P08246 30-267): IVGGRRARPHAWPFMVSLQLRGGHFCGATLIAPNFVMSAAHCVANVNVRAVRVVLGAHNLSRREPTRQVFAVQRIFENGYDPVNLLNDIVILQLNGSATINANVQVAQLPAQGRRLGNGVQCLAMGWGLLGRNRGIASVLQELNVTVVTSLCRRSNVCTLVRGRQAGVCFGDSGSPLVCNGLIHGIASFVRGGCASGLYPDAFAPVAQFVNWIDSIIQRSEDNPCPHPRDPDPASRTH
The experiment in a line: Specificity assay: human leukocyte elastase. The class given is biochemical. The method, then:
(§1) The final conditions for each assay were as follows:
[100 μM Succ-AAPF-pNA [SEQ. ID NO.
(§2) The percentage of inhibition was calculated using the formula:
(§3) [1-((UVinn-UVblank)/(UVctl-UVblank))]×100

The target of another assay is T3, human liver cathepsin B (Homo sapiens, UniProt P07858).
T3 construct: from tissue; host or cells: human liver
The experiment in a line: Specificity assay: human liver cathepsin B. The class given is biochemical. The method, then: as §1
[100 mM NaHPO4 pH 6, 0.1 mM EDTA, 3% DMSO, 1 mM TCEP, 0.01% Tween-20, 30 μM Z-FR-pNA and 5 nM cathepsin B (tile stock enzyme was activated in buffer containing 20 mM TCEP before use)].
as §2, §3

In assay [2] the target is porcine pancreatic elastase (Sus scrofa, UniProt P00772). Kind of assay: biochemical.
Chain of porcine pancreatic elastase (P00772 27-266): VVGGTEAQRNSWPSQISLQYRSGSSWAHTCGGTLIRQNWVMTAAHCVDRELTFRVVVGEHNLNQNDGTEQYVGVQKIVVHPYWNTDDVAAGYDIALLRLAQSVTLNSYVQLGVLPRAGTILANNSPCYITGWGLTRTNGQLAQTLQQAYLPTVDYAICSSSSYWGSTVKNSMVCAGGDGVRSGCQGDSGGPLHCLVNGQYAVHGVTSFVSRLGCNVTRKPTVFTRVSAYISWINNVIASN
Experimental: (§4) The specificity of the compounds was determined against a variety of serine proteases: human leukocyte elastase, porcine pancreatic elastase and bovine pancreatic α-chymotrypsin and one cysteine protease: human liver cathepsin B. In all cases a 96-well plate format protocol using a colorimetric p-nitroaniline (pNA) substrate specific for each enzyme was used. Each assay included a 1 h enzyme-inhibitor pre-incubation at 30° C. followed by addition of substrate and hydrolysis to ≈30% conversion as measured on a UV Thermomax® microplate reader. Substrate concentrations were kept as low as possible compared to KM to reduce substrate competition. Compound concentrations varied from 300 to 0.06 μM depending on their potency. The final conditions for each assay were as follows:
(§5) 50 mM Tris-HCl pH 8, 0.5 M Na2SO4, 50 mM NaCl, 0.1 mM EDTA, 3% DMSO, 0.01% Tween-20 with;
[100 μM Succ-AAPF-pNA [SEQ. […] 7] and 250 pM α-chymotrypsin], [133 μM Succ-AAA-pNA and 8 nM porcine elastase], [133 μM Succ-AAV-pNA and 8 nM leukocyte elastase]; or
A representative example is summarized below for porcine pancreatic elastase: In a polystyrene flat-bottom 96-well plate were added using a Biomek liquid handler (Beckman):
40 μL of assay buffer (50 mM Tris-HCl pH 8, 50 mM NaCl, 0.1 mM EDTA);
20 μL of enzyme solution (50 mM Tris-HCl pH 8, 50 mM NaCl, 0.1 mM EDTA, 0.02% Tween-20, 40 nM porcine pancreatic elastase); and
20 μL of inhibitor solution (50 mM Tris-HCl, pH 8, 50 mM NaCl, 0.1 mM EDTA, 0.02% Tween-20, 1.5 mM-0.3 μM inhibitor, 15% v/v DMSO).
After 60 min pre-incubation at 30° C., 20 μL of substrate solution (50 mM Tris/HCl, pH 8, 0.5 M Na2SO4, 50 mM NaCl, 0.1 mM EDTA, 665 μM Succ-AAA-pNA) were added to each well and the reaction was further incubated at 30° C. for 60 min after which time the absorbance was read on the UV Thermomax® plate reader. Rows of wells were allocated for controls (no inhibitor) and for blanks (no inhibitor and no enzyme). The sequential 2-fold dilutions of the inhibitor solution were performed on a separate plate by the liquid handler using 50 mM Tris-HCl pH 8, 50 mM NaCl, 0.1 mM EDTA, 0.02% Tween-20, 15% DMSO. All other specificity assays were performed in a similar fashion.
A non-linear curve fit with the Hill model was applied to the inhibition-concentration data, and the 50% effective concentration (IC50) was calculated by the use of SAS software (Statistical Software System; SAS Institute, Inc., Cary, N.C.).
For the next assay, the target named is NS3 protease (Hepatitis C virus genotype 1b, UniProt P26663). Kind of assay: Inhibition of NS3 protease by N-terminal cleavage product (assay not specified). The class given is biochemical, HCV. The note with it: N-terminal cleavage product of an analog of a natural substrate.
Chain of NS3 protease (P26663 1027-1208): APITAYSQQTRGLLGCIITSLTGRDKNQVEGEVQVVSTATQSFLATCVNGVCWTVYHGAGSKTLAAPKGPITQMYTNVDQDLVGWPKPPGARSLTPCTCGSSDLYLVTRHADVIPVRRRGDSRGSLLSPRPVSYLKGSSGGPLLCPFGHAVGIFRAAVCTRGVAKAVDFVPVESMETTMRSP
The target in assay [3] is bovine pancreatic α-chymotrypsin (Bos taurus, UniProt P00766). Kind of assay: biochemical.
Experimental: as §4, §5
After 60 min pre-incubation at 30° C., 20 μL of substrate solution (50 mM Tris/HCl, pH 8, 0.5 M Na2SO4, 50 mM NaCl, 0.1 mM EDTA, 665 μM Succ-AAA-pNA) were added to each well and the reaction was further incubated at 30° C. for 60 min after which time the absorbance was read on the UV Thermomax® plate reader. Rows of wells were allocated for controls (no inhibitor) and for blanks (no inhibitor and no enzyme). […]
The percentage of inhibition was calculated using the formula: […]
Setting [4] is: IC50, Table 2, unmarked values: NS3 protease/NS4A cofactor peptide radiometric assay.
The mark [5] stands for this setting: Table 2, human leukocyte elastase, read-out: HLE.
The mark [6] stands for this setting: Table 5, first line of the cell, NS3 protease/NS4A cofactor peptide radiometric assay (Example 38), read-out: IC50.

With `CCC[C@H](NC(=O)[C@@H]1C[C@@H](OCc2ccccc2)CN1C(=O)[C@@H](NC(=O)[C@@H](NC(=O)[C@@H](CCC(=O)O)NC(=O)[C@H](CC(=O)O)NC(C)=O)[C@@H](C)CC)C(C)C)C(=O)O` [compound 203] (Ac-D[dE]IV[Hyp](Bn)[Nva]-OH; C-terminus assumed), the IC50 is 0.6 µM in assay [1] (setting [4]); > 300 µM on human leukocyte elastase (setting [5]); > 300 µM on human liver cathepsin B (Table 2, marked **: human liver cathepsin B, read-out: Other (marked **)); > 300 µM in assay [2].

`CCC[C@H](NC(=O)[C@@H]1CCCN1C(=O)[C@@H](NC(=O)[C@@H](NC(=O)[C@H](CC(=O)O)NC(=O)[C@H](CC(=O)O)NC(C)=O)[C@@H](C)CC)C(C)C)C(=O)O` [compound 123]: the IC50 in assay [1] (Table 1, unmarked values: NS3 protease/NS4A cofactor peptide radiometric assay, read-out: IC50) is 220 µM; at human leukocyte elastase it was > 300 µM; in assay [2], > 300 µM.

Regarding Ac-DDIVPC-OH [Ac-D-D-I-V-P-C-OH], the “inhibition of NS3 protease” value at NS3 protease is listed as “inhibitory”.

Regarding `CCC[C@H](NC(=O)[C@@H]1C[C@@H](OCc2ccc3ccccc3c2)CN1C(=O)[C@@H](NC(=O)[C@@H](NC(=O)[C@@H](CCC(=O)O)NC(=O)[C@H](CC(=O)O)NC(C)=O)C1CCCCC1)C(C)C)C(=O)O` [compound 214] (Ac-D[dE][Chg]V[Hyp](X1)[Nva]-OH), the IC50 in assay [1] (Table 2, unmarked values: NS3 protease/NS4A cofactor peptide radiometric assay, read-out: IC50) is 0.028 µM; at human leukocyte elastase, > 300 µM; against human liver cathepsin B, > 300 µM; in assay [2], > 300 µM; in assay [3] it was > 300 µM.

As to `CC[C@@H]1C[C@]1(NC(=O)[C@@H]1C[C@@H](OCc2cccc3ccccc23)CN1C(=O)[C@@H](NC(=O)[C@@H](NC(=O)[C@@H](CCC(=O)O)NC(=O)[C@H](CC(=O)O)NC(C)=O)C1CCCCC1)C(C)C)C(=O)O` [compound 518] (Ac-D[dE][Chg]V[Hyp](CH2(1-naphthyl))[Acca(2-Et,1R,2R)]-OH), the results for the IC50 (in assay [1] (setting [6]); at human leukocyte elastase) were 0.011 µM and > 300 µM, respectively.

Regarding `CC(=O)N[C@@H](CC(=O)O)C(=O)N[C@H](CCC(=O)O)C(=O)N[C@H](C(=O)N[C@H](C(=O)N1C[C@H](OCc2ccccc2)C[C@H]1C(=O)N[C@@H](CS)C(=O)O)C(C)C)C1CCCCC1` [compound 210] (Ac-D[dE][Chg]V[Hyp](Bn)C-OH), the IC50 in assay [1] (setting [4]) was 0.033 µM; at human leukocyte elastase (setting [5]), > 300 µM; in assay [2], > 300 µM; in assay [3] it was > 300 µM.

Consider `CC[C@H](C)[C@H](NC(=O)[C@@H](CCC(=O)O)NC(=O)[C@H](CC(=O)O)NC(C)=O)C(=O)N[C@H](C(=O)N1C[C@H](OCc2ccccc2)C[C@H]1C(=O)NC1(C(=O)O)CC1)C(C)C` [compound 212] (Ac-D[dE]IV[Hyp](Bn)[Ac3c]-OH; C-terminus assumed), for which the IC50 in assay [1] (setting [4]) is 0.21 µM; at human leukocyte elastase (setting [5]), > 300 µM; in assay [2], > 300 µM.

For the molecule `CC[C@@H]1C[C@]1(NC(=O)[C@@H]1C[C@@H](OCc2cccc3ccccc23)CN1C(=O)[C@@H](NC(=O)[C@@H](NC(=O)[C@@H](CCC(=O)O)NC(=O)[C@H](CC(=O)O)NC(C)=O)C1CCCCC1)C1CCCCC1)C(=O)O` [compound 509] (Ac-D[dE][Chg][Chg][Hyp](CH2(1-naphthyl))[Acca(2-Et,1R,2R)]-OH), the IC50 in assay [1] (setting [6]) is 0.015 µM; at human leukocyte elastase it was > 300 µM.

In the case of `CC(=O)N[C@H](C(=O)N[C@H](C(=O)N1C[C@H](Oc2ccc(Br)cc2)C[C@H]1C(=O)NC1(C(=O)O)CC1)C(C)C)C1CCCCC1` [compound 238], the results for the IC50 (in assay [1] (setting [4]); at human leukocyte elastase (setting [5])) were 27 µM and 195 µM, respectively.
